How the values were obtained:
Type in all cases: cell-based, human
[1] = system: drug-sensitive, and drug-resistant gastric carcinoma and breast cancer cells; experiment: Time course of mitoxantrone accumulation (flow cytometry); conditions: 10 µM mitoxantrone and TPS-A for increasing time periods (Fig 5A, 5B)
Method: (§1) Cellular mitoxantrone accumulation was determined according to the procedure described in Lage H et al., FEBS Lett 2001;503:179-84. Briefly, 4 x 10^5 cells were seeded out in 6-well plates 78 hours prior to the experiment. Incubation with mitoxantrone (0, 1,5 and 10 µg/ml) was performed for 60 minutes at 37°C and 70-80 % cellular confluence. For kinetics of intracellular enrichment of mitoxantrone, cells were exposed to 10 µg/ml mitoxantrone for 0, 5, 10 and 60 min. Cells were washed with ice-cold PBS, trypsinized and resuspended in 4 °C PBS at a concentration of 4 x 10^5 cells/ml. Intracellular fluorescence of mitoxantrone was determined by flow cytometry (Becton-Dickinson, San Jose, CA). The cells were excited at 480 nm and emission was measured at 630 nm. A minimum of 10^4 cells was analyzed for each sample. All assays were performed at least in three independent experiments, each time with triplicate wells.
To analyze the time course of MDR modulating effects of TPS-A, drug-sensitive, and drug-resistant gastric carcinoma and breast cancer cells were incubated with 10 µM mitoxantrone and TPS-A for increasing time periods.

[2] = system: BCRP-transfected cell variant MCF-7/BCRP clone 8; experiment: Mitoxantrone accumulation assay (flow cytometry); conditions: 50 µM TPS-A; compared to drug accumulation level in the untreated, parental control cell line (Fig 4B)
Method: as §1
(§2) To provide confirmation that the observed resensitization to mitoxantrone of BCRP-overexpressing cells was indeed the result of BCRP inhibition by TPS-A, a mitoxantrone accumulation assay was performed. The known so-called "multispecific" MDR modulator GF120918, inhibiting P-gp- and BCRP activity, was used as a positive control for P-gp- and BCRP antagonism.

[3] = system: BCRP-positive, atypical MDR gastric carcinoma cell line EPG85-257RNOV; experiment: Mitoxantrone accumulation assay (flow cytometry); conditions: 10 µM TPS-A; mitoxantrone 60 min at 37 °C (Fig 4A)
Method: as §1, §2

[4] = system: P-gp-expressing, classical MDR variant EPG85-257RDB; experiment: Mitoxantrone accumulation assay (flow cytometry); conditions: TPS-A (Fig 4A)
Method: as §1, §2

[5] = system: drug-sensitive, parental cell line MCF-7; experiment: Mitoxantrone accumulation assay (flow cytometry); conditions: increasing modulator concentrations
Method: as §1, §2

[6] = system: parental, drug-sensitive gastric carcinoma cell variant EPG85-257P; experiment: Mitoxantrone accumulation assay (flow cytometry); conditions: TPS-A (Fig 4A)
Method: as §1, §2

[7] = system: MCF-7/AdrVp; experiment: Mitoxantrone accumulation assay (flow cytometry); conditions: 50 µM TPS-A
Method: as §1, §2

[8] = system: drug-sensitive and drug-resistant gastric and breast cancer cell lines; experiment: Cytotoxicity of the MDR modulators alone (SRB proliferation assay); conditions: for growth inhibitory effect / cytotoxic side effects: 10 µM TPS-A alone, any of the drug-sensitive or drug-resistant cancer cell lines tested
Method: Modulation of chemoresistance was tested using a proliferation assay based on sulforhodamine B (SRB), a protein-binding reagent (Skehan P et al., J Natl Cancer Inst 1990;82:1107-12), as described in Lage H et al., Int J Hyperthermia 2000;16:291-303; Lage H et al., FEBS Lett 2001;503:179-84; Lage H et al., FEBS Lett 2001;494:54-9. In each experiment, 350 cells per well were seeded in the presence or absence of TPS-A in 96-well plates in complete medium and allowed to attach overnight. Mitoxantrone or daunorubicin were added in a dilution series in triplicate wells. After 5 days, when unselected wells were still subconfluent, incubation was terminated by replacing the medium with 10 % trichloroacetic acid, followed by incubation at 4 °C for 1 h. After samples were washed 5 times with water and air-dried, 50 µl 0.4 % SRB (Sigma, St. Louis, MO) in 1 % acetic acid was added and samples were incubated for 10 min at room temperature. Unbound dye was eliminated by washing the plates 5 times with 1 % acetic acid. After air-drying and re-solubilisation of the protein-bound dye in 10 mM Tris-HCl (pH 8.0), absorbance was quantified at 562.5 nm. To determine the IC50-value, the absorbance difference of control cells without drug was set to be 100 %. Linear regression of data was done for the linear part of the curve, and IC50-values were calculated from multiple, at least three independent experiments for each cell line.
The cytotoxicity of the MDR modulators TPS-A and GF120918 on drug-sensitive and drug-resistant gastric and breast cancer cell lines was initially assessed.

In the case of `COc1ccc2c(C[C@@H]3NC(=O)[C@@H]4CCCN4C3=O)c(CC=C(C)C)[nH]c2c1` [TPS-A, tryprostatin A], the “chemosensitizing effects over time (mitoxantrone accumulation)” value [1] is reported as “time-dependent manner”, the “inhibition of the mitoxantrone pump activity” value [2] is reported as “completely” and the “increase to % of the mitoxantrone accumulation level of untreated drug-sensitive cells” value [3] is reported as 40%. For the same compound, the “drug transporter inhibiting effect (mitoxantrone accumulation)” value [4] was “No significant drug transporter inhibiting effect”, the “effect on drug accumulation” value [5] was “only a weak dosage-depending effect” and the mitoxantrone accumulation [6] was “slightly increased mitoxantrone accumulation”. For the same compound, the “increase of drug accumulation with respect to control cells” value [7] was 45%, the “growth inhibitory effect / cytotoxic side effects” value [8] was “no growth inhibitory effect” and the “growth inhibitory effect / cytotoxic side effects” value ([8]; listed as tryprostatin A) was “without showing any cytotoxic side effects”. The cytotoxicity ([8]; TPS-A concentration range 1-100 µM) was “does not show any cytotoxicity” and the “cross-resistance to the MDR modulator” value ([8]; multidrug-resistant tumor cell lines) was “No evidence of cross-resistance”.
